Test results published in article PMC13239830, “Antimicrobial Peptides Induce Cell Death in Marginal Zone Lymphoma Models Resistant to Targeted Therapies” (EJHaem, 2026).
“Also recorded” adds a separate entry of the source. Peptide text beside a SMILES is read from it.

Key:
[1] = test system: MZL cell lines (VL51, Karpas1718) and resistant derivatives; test: In vitro cytotoxic activity (MTT, 72 h), summary over the MZL cell line panel; format: cell-based; settings: for activity in resistant models: derivatives resistant to BTK, PI3Kδ or PI3Kα/δ inhibitors
Protocol: For in vitro testing, we used two human MZL cell lines, VL51 and Karpas1718, along with derivative clones rendered resistant by prolonged exposure to the BTK inhibitor ibrutinib, the PI3Kδ inhibitor idelalisib, or the PI3Kα/δ inhibitor copanlisib (Table S1; methods described in the Supporting Information). […] The calculated IC50 values ranged from 5 to 10 µM (Table S2). […] These findings were validated by treating lymphoma cells and peripheral blood mononuclear cells (PBMCs) in parallel. […] While acquired resistance to BTK or PI3K inhibitors often involves secondary mutations in the drug‐binding site, activation of alternative kinases, or evasion of apoptosis through upregulation of anti‐apoptotic proteins, these adaptations are unlikely to protect tumor cells from AMP‐mediated membrane disruption. […]
(§1) The established human cell lines VL51 1 and Karpas1718 2, derived from bona fide marginal zone lymphomas (MZL), and their derivatives with secondary resistance obtained by long exposure to the BTK inhibitor ibrutinib, the PI3Kδ inhibitor idelalisib or the PI3Kα/δ inhibitor copanlisib (three from VL51 3-5, and one from Karpas1718 6). Cell lines were cultured in RPMI supplemented with fetal bovine serum (FBS) (10%) and penicillin-streptomycin-neomycin (≈5,000 units penicillin, 5 mg streptomycin, and 10 mg neomycin/mL; Sigma-Aldrich, Darmstadt, Germany). Cell line identities were confirmed by periodic short tandem repeat (STR) DNA fingerprinting using the Promega GenePrint 10 System kit (B9510).
(§2) Cells were regularly tested for mycoplasma negativity using the MycoAlert Mycoplasma Detection Kit (Lonza, Visp, Switzerland).
(§3) […] Purity (>95%) was confirmed by reverse-phase high-performance liquid chromatography (RP-HPLC) while molecular masses were verified by mass spectrometry. Peptides were dissolved in nuclease-free water, and 2 mM stock solutions were prepared 7.
(§4) Antarctic peptides were synthesized by Caslo Aps (Caslo Aps Kongens, Lyngby, Denmark) with 98% purity. Purity was confirmed by reverse-phase high-performance liquid chromatography (RP-HPLC), and molecular masses were verified by mass spectrometry. As previously reported, the peptide stock concentration in nuclease-free water (1 mM) was determined spectrophotometrically.
(§5) In vitro cytotoxic activity
(§6) Cells were manually seeded into 96-well plates (VL51, 10’000 cells per well; SSK41, 20’000 cells per well; Karpas1718, 30’000 cells per well). Treatments were applied manually, and cell viability was assessed after 72 hours using 3-(4,5-dimethylthiazol-2-yl)-2,5-diphenyltetrazolium bromide (MTT).
(§7) After a 4-hour incubation, the reaction was terminated by adding sodium dodecyl sulfate (SDS) lysis buffer. Plates were analyzed with Cytation3, and IC50s were calculated using the 4-parameter logistic model (R environment or GraphPad Prism, Version 10.6.1). Antarctic peptides were tested at 40μM, with 1:2 dilutions down to 625 nM. Temporins were tested at 100μM, with 1:5 dilutions down to 32 nM. […]

[2] = test system: VL51 cells; format: cell-based, human; settings: 72 h
Protocol: as §1, §2, §3, §4, §5, §6, §7

[3] = test system: Karpas1718 cells; format: cell-based, human; settings: 72 h
Protocol: as §1, §2, §3, §4, §5, §6, §7

[4] = test system: Karpas1718-Idel (idelalisib-resistant Karpas1718) cells; format: cell-based, human; settings: 72 h
Protocol: as §1, §2, §3, §4, §5, §6, §7

[5] = test system: VL51-Copa (copanlisib-resistant VL51) cells; format: cell-based, human; settings: 72 h
Protocol: as §1, §2, §3, §4, §5, §6, §7

[6] = test system: VL51-Ibru (ibrutinib-resistant VL51) cells; format: cell-based, human; settings: 72 h
Protocol: as §1, §2, §3, §4, §5, §6, §7

[7] = test system: VL51-Idel (idelalisib-resistant VL51) cells; format: cell-based, human; settings: 72 h
Protocol: as §1, §2, §3, §4, §5, §6, §7

[8] = test system: PBMCs; test: Cell death and membrane integrity by Annexin V/PI staining; format: cell-based; settings: 10 µM, 1 and 2 h, PBMCs treated in parallel, flow cytometry
Protocol: as §1
Cells were regularly tested for mycoplasma negativity using the MycoAlert Mycoplasma Detection Kit (Lonza, Visp, Switzerland). […]
Antarctic peptides were synthesized by Caslo Aps (Caslo Aps Kongens, Lyngby, Denmark) with 98% purity. […] As previously reported, the peptide stock concentration in nuclease-free water (1 mM) was determined spectrophotometrically. […]
Subsequently, cells were stained with Annexin V and propidium iodide (PI) (Annexin V FITC Apoptosis Detection Kit, BMS500FI-300, Life Technologies) following the manufacturer ’s instructions and analyzed through flow cytometry and immunofluorescence (Leica Thunder microscope). […]

[9] = test system: Karpas1718-Idel cells; test: as above; format: cell-based, human; settings: 10 µM, 1 and 2 h, flow cytometry
Protocol: as §1, §2, §3
as §4, with “spectrophotometrically. […]” for “spectrophotometrically.”
Subsequently, cells were stained with Annexin V and propidium iodide (PI) (Annexin V FITC Apoptosis Detection Kit, BMS500FI-300, Life Technologies) following the manufacturer ’s instructions and analyzed through flow cytometry and immunofluorescence (Leica Thunder microscope).
PBMCs. Flow cytometric (A) and immunofluorescence (B) analyses of Annexin V/PI staining in Karpas1718-Idel cells and PBMCs after 1- and 2-hour treatments with W-trematocine or Temporin L at 10 µM. (B) Representative images (100x magnification) show brightfield, Annexin V (green), and PI […]

[10] = test system: primary human fibroblasts; settings: up to 25 µM, 24 h, ref [9]; cited from earlier work
[11] = test system: rabbit erythrocytes; settings: ref [9]; cited from earlier work
[12] = test system: nonmalignant cells; settings: prior studies; ref prior studies; cited from earlier work
Text: ABSTRACT Introduction Marginal zone lymphoma (MZL) is an indolent yet incurable B‐cell malignancy in which targeted agents such as BTK and PI3K inhibitors frequently fail due to resistance or toxicity. […] Methods Peptides were synthesized and tested for their anti‐proliferative activity in MZL cell lines. Results We evaluated the antitumor activity of seven natural AMPs, including Antarctic fish–derived trem ...

Structure (SMILES) | anti-proliferative activity (in words) ([1]; MZL cell lines VL51, Karpas1718 and resistant derivatives) | cytotoxic effect ([1]; concentrations up to 50 µM, MZL cell lines) | IC50 [2] [µM] | IC50 [3] [µM] | IC50 [4] [µM] | IC50 [5] [µM] | IC50 [6] [µM] | IC50 [7] [µM] | activity in resistant models [1] | sensitivity of PBMCs (Annexin V/PI staining) ([8]; listed as temporin L) | anti-lymphoma activity (Annexin V/PI staining) [9] | anti-lymphoma activity (Annexin V/PI staining) ([9]; listed as temporin L) | IC50 ([1]; 72 h) [µM] | sensitivity of PBMCs (Annexin V/PI staining) [8] | cytotoxicity [10] | hemolysis [11] | toxicity toward nonmalignant cells [12]
CSCC[C@H](NC(=O)CNC(=O)[C@H](Cc1c[nH]cn1)NC(=O)[C@@H](NC(=O)[C@H](CCCNC(=N)N)NC(=O)[C@H](CCC(=O)O)NC(=O)[C@H](C)NC(=O)[C@H](C)NC(=O)[C@@H](NC(=O)[C@H](CC(C)C)NC(=O)[C@H](C)NC(=O)[C@H](Cc1c[nH]cn1)NC(=O)CNC(=O)[C@@H](NC(=O)[C@H](Cc1c[nH]cn1)NC(=O)[C@H](CCCCN)NC(=O)[C@H](Cc1c[nH]c2ccccc12)NC(=O)[C@H](Cc1ccccc1)NC(=O)[C@H](CCC(=O)O)NC(=O)[C@@H](N)Cc1ccccc1)C(C)C)[C@@H](C)O)C(C)C)C(=O)N[C@@H](CC(C)C)C(=O)N[C@H](C(=O)NCC(=O)O)[C@@H](C)O [Chionodracine] (H-FEFWKHVGHALTAAERVHGMLTG-OH; N-terminus and C-terminus assumed) | inactive | no measurable cytotoxic effect | > 40 | > 40 | > 40 | > 40 | > 40 | > 40 |  |  |  |  |  |  |  |  | 
CC[C@H](C)[C@H](NC(=O)CNC(=O)[C@H](CO)NC(=O)[C@H](CC(C)C)NC(=O)[C@@H](NC(=O)[C@H](CCCNC(=N)N)NC(=O)CNC(=O)[C@@H](NC(=O)[C@H](CC(C)C)NC(=O)[C@@H]1CCCN1C(=O)[C@H](CC(C)C)NC(=O)[C@@H](N)Cc1ccccc1)[C@@H](C)CC)C(C)C)C(=O)N[C@@H](CC(C)C)C(N)=O [Temporin A] (H-FLPLIGRVLSGIL-NH2; N-terminus and C-terminus assumed) |  |  | 32 | 47.4 | 49 | 48.8 | 48.5 | 27.5 |  |  |  |  |  |  |  |  | 
CC[C@H](C)[C@H](NC(=O)[C@@H]1CCCN1C(=O)[C@H](CC(C)C)NC(=O)[C@@H](N)CC(C)C)C(=O)N[C@H](C(=O)NCC(=O)N[C@@H](CC(N)=O)C(=O)N[C@@H](CC(C)C)C(=O)N[C@@H](CC(C)C)C(=O)N[C@@H](CCCCN)C(=O)N[C@@H](CO)C(=O)N[C@@H](CC(C)C)C(=O)N[C@@H](CC(C)C)C(N)=O)C(C)C [Temporin B] (H-LLPIVGNLLKSLL-NH2; N-terminus and C-terminus assumed) |  |  | 38.2 | 44.1 | 71.4 | 47.7 | 45.4 | 31.6 |  |  |  |  |  |  |  |  | 
CC[C@H](C)[C@H](NC(=O)CNC(=O)[C@H](CC(N)=O)NC(=O)[C@H](CC(C)C)NC(=O)[C@@H](NC(=O)[C@H](CCCNC(=N)N)NC(=O)CNC(=O)[C@@H](NC(=O)[C@@H](NC(=O)[C@@H]1CCCN1C(=O)[C@H](Cc1ccccc1)NC(=O)[C@@H](N)Cc1ccccc1)C(C)C)[C@@H](C)CC)[C@@H](C)CC)C(=O)N[C@@H](CC(C)C)C(N)=O [Temporin G] (H-FFPVIGRILNGIL-NH2; N-terminus assumed) |  |  | 35.2 | 31 | 101 | 26.5 | 38.1 | 28.2 |  |  |  |  |  |  |  |  | 
CC[C@H](C)[C@H](NC(=O)[C@H](CCCNC(=N)N)NC(=O)CNC(=O)[C@H](CC(C)C)NC(=O)[C@H](Cc1ccccc1)NC(=O)[C@H](CCCCN)NC(=O)[C@H](CO)NC(=O)[C@H](Cc1ccccc1)NC(=O)[C@H](Cc1c[nH]c2ccccc12)NC(=O)[C@H](CCC(N)=O)NC(=O)[C@@H](NC(=O)[C@@H](N)Cc1ccccc1)C(C)C)C(=O)N[C@@H](CC(C)C)C(N)=O [Temporin L] (H-FVQWFSKFLGRIL-NH2) |  |  | 8.9 | 7.5 | 10.1 | 7.4 | 9.6 | 6.4 | maintaining full activity in all resistant models | markedly less sensitive | active in lymphoma cells | potent anti‐lymphoma activity |  |  |  |  | 
CC[C@H](C)[C@H](NC(=O)CNC(=O)[C@H](CCCNC(=N)N)NC(=O)[C@H](Cc1ccc(O)cc1)NC(=O)[C@H](CC(C)C)NC(=O)[C@H](CCC(N)=O)NC(=O)[C@H](CO)NC(=O)[C@H](Cc1ccccc1)NC(=O)[C@@H](N)Cc1ccccc1)C(=O)N[C@H](C(=O)N[C@@H](CO)C(=O)N[C@H](C(=O)NCC(=O)N[C@@H](CCCCN)C(=O)N[C@@H](Cc1c[nH]cn1)C(=O)N[C@H](C(=O)N[C@@H](Cc1c[nH]cn1)C(=O)NCC(=O)N[C@@H](CC(C)C)C(=O)N[C@@H](CC(C)C)C(=O)N[C@@H](CO)C(=O)NCC(=O)O)[C@@H](C)CC)C(C)C)C(C)C [Trematocine-1] (H-FFSQLYRGIVSVGKHIHGLLSG-OH; N-terminus and C-terminus assumed) |  |  | > 40 | > 40 | > 40 | > 40 | > 40 | > 40 |  |  |  |  | 25 to 50 |  |  |  | 
CC[C@H](C)[C@H](NC(=O)CNC(=O)[C@H](CCCNC(=N)N)NC(=O)[C@H](CC(C)C)NC(=O)[C@H](CC(C)C)NC(=O)[C@H](Cc1c[nH]cn1)NC(=O)CNC(=O)[C@H](Cc1ccccc1)NC(=O)[C@@H](N)Cc1c[nH]c2ccccc12)C(=O)N[C@H](C(=O)N[C@@H](CO)C(=O)N[C@H](C(=O)NCC(=O)N[C@@H](CCCCN)C(=O)N[C@@H](Cc1c[nH]cn1)C(=O)N[C@H](C(=O)N[C@@H](Cc1c[nH]cn1)C(=O)NCC(=O)N[C@@H](CC(C)C)C(=O)N[C@H](C(=O)N[C@H](C(=O)NCC(=O)O)[C@@H](C)O)[C@@H](C)CC)[C@@H](C)CC)C(C)C)C(C)C [W-Trematocine] (H-WFGHLLRGIVSVGKHIHGLITG-OH; N-terminus and C-terminus assumed) |  |  | 5.5 | 5 | 6.5 | 7.1 | 6.5 | 7.6 | maintaining full activity in all resistant models |  | active in lymphoma cells; also recorded: potent anti‐lymphoma activity |  |  | markedly less sensitive | negligible cytotoxicity | minimal hemolysis | minimal toxicity
